{
  "source": "patent US7854940B2",
  "about": "“Broad spectrum preservation blends” (Arch Chemicals, Inc., priority 2004, dated 2010)",
  "experiment_in_all_cases": "Challenge test in broth",
  "type_in_all_cases": "cell-based",
  "details_in_all_cases": "Tryptic Soy Broth, blend added at 0.5% v/v",
  "key": {"[1]": {"system": "Pseudomonas aeruginosa (ATCC 9027) and Enterobacter gergoviae (cosmetic isolate)", "description": "(§1) A challenge protocol similar to the CTFA method was followed to assess efficacy against a broad spectrum of microorganisms. The four separate inocula were: Staphylococcus aureus (ATCC 6538), Pseudomonas aeruginosa (ATCC 9027) and Enterobacter gergoviae (cosmetic isolate), Candida albicans (ATCC 10231), and mixed molds Aspergillus niger (ATCC 6275) and a Penicillium sp. cosmetic isolate. Tubes containing 20 milliliters of broth were inoculated with approximately 1,500,000 bacteria per gram, 50,000 yeast cells per gram or 100,000 mold spores per gram. Individual challenges were prepared from overnight slants of bacteria and yeast cultures and from heavily sporulating mold cultures, 7 to 10 days old. All samples were plated quantitatively for viable organisms after 24 hours and 8 days."}, "[2]": {"system": "mixed molds Aspergillus niger (ATCC 6275) and a Penicillium sp. cosmetic isolate", "description": "as §1"}, "[3]": {"system": "Staphylococcus aureus (ATCC 6538)", "description": "as §1"}, "[4]": {"system": "Candida albicans (ATCC 10231)", "description": "as §1"}},
  "data": [
    {"compound": "OCCOc1ccccc1", "note": "[2-Phenoxyethanol]", "values": [
      {"measurement": "Colony Forming Units per Milliliter of Broth (CFU/ml) after 8 Days", "setting": "[1]", "result": "9.1 × 10^7 CFU/ml"},
      {"measurement": "Colony Forming Units per Milliliter of Broth (CFU/ml) after 8 Days", "setting": "[2]", "result": "5.8 × 10^2 CFU/ml"},
      {"measurement": "Colony Forming Units per Milliliter of Broth (CFU/ml) after 8 Days", "setting": "[3]", "result": "3.2 × 10^8 CFU/ml"},
      {"measurement": "Colony Forming Units per Milliliter of Broth (CFU/ml) after 8 Days", "setting": "[4]", "result": "4.0 × 10^3 CFU/ml"}
    ]}
  ]
}
